Biological target: T1, CYP3A4 (Homo sapiens, UniProt P08684)
T1 construct: pre-incubated with human liver microsomes and NADPH; from tissue; host or cells: human liver microsomes
Assay: Cytochrome P450 inhibition assay (midazolam hydroxylation)
Format: in vitro ADME
Conditions: human, human liver microsomes, probe midazolam (hydroxylation to 1′-hydroxymidazolam), 10 μM test compound, midazolam at approximately its Km
How it was run: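 Human liver microsomes; CYP3A4 activity as midazolam 1′-hydroxylation with substrate near Km, with or without 10 μM test compound, read as percent inhibition. For time-dependent inhibition, parallel samples were preincubated 30 min with NADPH before substrate, and percent inhibition compared with non-preincubated samples.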

T1 sequence (P08684 whole entry): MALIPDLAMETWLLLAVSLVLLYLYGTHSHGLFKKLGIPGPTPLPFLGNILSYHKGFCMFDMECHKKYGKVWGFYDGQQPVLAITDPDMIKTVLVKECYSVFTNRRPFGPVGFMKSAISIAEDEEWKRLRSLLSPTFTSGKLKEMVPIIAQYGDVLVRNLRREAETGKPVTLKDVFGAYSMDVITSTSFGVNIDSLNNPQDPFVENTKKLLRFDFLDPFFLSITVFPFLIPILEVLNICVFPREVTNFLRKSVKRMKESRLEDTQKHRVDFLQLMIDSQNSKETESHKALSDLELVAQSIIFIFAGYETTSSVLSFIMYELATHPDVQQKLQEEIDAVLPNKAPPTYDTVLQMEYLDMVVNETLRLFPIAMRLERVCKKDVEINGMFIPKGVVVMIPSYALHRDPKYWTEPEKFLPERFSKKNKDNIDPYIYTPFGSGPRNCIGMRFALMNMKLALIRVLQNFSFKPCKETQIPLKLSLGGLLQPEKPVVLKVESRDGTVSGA

SMILES	inhibition at 10 µM
Cc1nc(C(=O)N2CCC[C@@H](C)[C@H]2CNc2nc3cc(F)ccc3o2)c(-c2ccc(F)cc2)s1 [Example A15, ((2S,3R)-2-(((5-Fluorobenzo[d]oxazol-2-yl)amino)methyl)-3-methylpiperidin-1-yl) (5-(4-fluorophenyl)-2-methylthiazol-4-yl)methanone]	78%
Cc1ccc(-n2nccn2)c(C(=O)N2CCC[C@@H](C)[C@H]2CNc2ccc(C3CC3)cn2)c1 [Example A136, ((2S,3R)-2-(((5-Cyclopropylpyridin-2-yl)amino)methyl)-3-methylpiperidin-1-yl)(5-methyl-2-(2H-1,2,3-triazol-2-yl)phenyl)methanone]	91%
Cc1ccc(-c2cnn(C)c2)c(C(=O)N2CCC[C@@H](C)[C@H]2CNc2ncc(Cl)cc2F)c1 [Example A97, ((2S,3R)-2-(((5-Chloro-3-fluoropyridin-2-yl)amino)methyl)-3-methylpiperidin-1-yl)(5-methyl-2-(1-methyl-1H-pyrazol-4-yl)phenyl)methanone]	98%
Cc1ccc(-n2cccn2)c(C(=O)N2CCC[C@@H](C)[C@H]2CNc2ccc(C(F)(F)F)nn2)n1 [Example A164, ((2S,3R)-3-Methyl-2-(((6-(trifluoromethyl)pyridazin-3-yl)amino)methyl)piperidin-1-yl)(6-methyl-3-(1H-pyrazol-1-yl)pyridin-2-yl)methanone]	37%
C[C@@H]1CCCN(C(=O)c2cccc(F)c2-n2nccn2)[C@@H]1CNc1ncc(C(F)(F)F)cn1 [Example A256, (3-Fluoro-2-(2H-1,2,3-triazol-2-yl)phenyl)((2S,3R)-3-methyl-2-(((5-(trifluoromethyl)pyrimidin-2-yl)amino)methyl)piperidin-1-yl)methanone]	52%
Cc1ccc(-c2ccccn2)c(C(=O)N2CCC[C@@H](C)[C@H]2CNc2nnc(C(F)(F)F)s2)c1 [Example A151, ((2S,3R)-3-Methyl-2-(((5-(trifluoromethyl)-1,3,4-thiadiazol-2-yl)amino)methyl)piperidin-1-yl)(5-methyl-2-(pyridin-2-yl)phenyl)methanone]	86%
Cc1ccc(-n2nccn2)c(C(=O)N2CCC[C@@H](C)[C@H]2CNc2nnc(C(F)(F)F)s2)n1 [Example A191, ((2S,3R)-3-Methyl-2-(((5-(trifluoromethyl)-1,3,4-thiadiazol-2-yl)amino)methyl)piperidin-1-yl)(6-methyl-3-(2H-1,2,3-triazol-2-yl)pyridin-2-yl)methanone]	44%
Cc1cccc(C(=O)N2CCC[C@@H](C)[C@H]2CNc2ncc(C(F)(F)F)cn2)c1-c1ncccn1 [Example A299, ((2S,3R)-3-Methyl-2-(((5-(trifluoromethyl)pyrimidin-2-yl)amino)methyl)piperidin-1-yl)(3-methyl-2-(pyrimidin-2-yl)phenyl)methanone]	51%
C[C@@H]1CCCN(C(=O)c2cc(F)c(F)cc2-n2nccn2)[C@@H]1CNc1ccc(Cl)cn1 [Example A246, ((2S,3R)-2-(((5-Chloropyridin-2-yl)amino)methyl)-3-methylpiperidin-1-yl)(4,5-difluoro-2-(2H-1,2,3-triazol-2-yl)phenyl)methanone]	69%
Cc1ccc(-c2cnn(C)c2)c(C(=O)N2CCC[C@@H](C)[C@H]2CNc2cccc(C#N)n2)c1 [Example A86, 6-((((2S,3R)-3-Methyl-1-(5-methyl-2-(1-methyl-1H-pyrazol-4-yl)benzoyl)piperidin-2-yl)methyl)amino)picolinonitrile]	95%
Cc1ccc(-c2cnn(C)c2)c(C(=O)N2CCC[C@@H](C)[C@H]2CNc2ccc(C(F)(F)F)cn2)n1 [Example A74, ((2S,3R)-3-Methyl-2-(((5-(trifluoromethyl)pyridin-2-yl)amino)methyl)piperidin-1-yl)(6-methyl-3-(1-methyl-H-pyrazol-4-yl)pyridin-2-yl)methanone]	74%
C[C@@H]1CCCN(C(=O)c2c(F)cccc2-c2ncccn2)[C@@H]1CNc1ccc(C(F)(F)F)cn1 [Example A241, (2-Fluoro-6-(pyrimidin-2-yl)phenyl)((2S,3R)-3-methyl-2-(((5-(trifluoromethyl)pyridin-2-yl)amino)methyl)piperidin-1-yl)methanone]	62%
Cc1ccc(-n2ccnc2)c(C(=O)N2CCC[C@@H](C)[C@H]2CNc2nc3cc(Cl)ccc3o2)c1 [Example A33, (2-(1H-Imidazol-1-yl)-5-methylphenyl)((2S,3R)-2-(((5-chlorobenzo[d]oxazol-2-yl)amino)methyl)-3-methylpiperidin-1-yl)methanone]	98%
COc1ncc(-c2ccc(C)cc2C(=O)N2CCC[C@@H](C)[C@H]2CNc2ccc(C(F)(F)F)cn2)cn1 [Example A4, (2-(2-Methoxypyrimidin-5-yl)-5-methylphenyl)((2S,3R)-3-methyl-2-(((5-(trifluoromethyl)pyridin-2-yl)amino)methyl)piperidin-1-yl)methanone]	96%
Cc1cc(C(=O)N2CCC[C@@H](C)[C@H]2CNc2ccc(C(F)(F)F)cn2)c(-n2nccn2)cc1F [Example A368, (4-Fluoro-5-methyl-2-(2H-1,2,3-triazol-2-yl)phenyl)((2S,3R)-3-methyl-2-(((5-(trifluoromethyl)pyridin-2-yl)amino)methyl)piperidin-1-yl)methanone]	83%
Cc1ccc(-n2nccn2)c(C(=O)N2CCC[C@@H](C)[C@H]2CNc2cc(C)nc3nc(C)nn23)c1 [Example A213, ((2S,3R)-2-(((2,5-Dimethyl-[1,2,4]triazolo[1,5-a]pyrimidin-7-yl)amino)methyl)-3-methylpiperidin-1-yl)(5-methyl-2-(2H-1,2,3-triazol-2-yl)phenyl)methanone]	19%
Cc1ccc(-n2nccn2)c(C(=O)N2CCC(F)(F)C[C@H]2CNc2ncc(C(F)(F)F)cn2)c1 [Example A211, (S)-(4,4-Difluoro-2-(((5-(trifluoromethyl)pyrimidin-2-yl)amino)methyl)piperidin-1-yl)(5-methyl-2-(2H-1,2,3-triazol-2-yl)phenyl)methanone]	60%
Cc1ccc(-c2ccccn2)c(C(=O)N2CCC[C@@H](C)[C@H]2CNc2nc3cc(Cl)ccc3o2)c1 [Example A32, ((2S,3R)-2-(((5-Chlorobenzo[d]oxazol-2-yl)amino)methyl)-3-methylpiperidin-1-yl)(5-methyl-2-(pyridin-2-yl)phenyl)methanone]	92%
Cc1ccc(-c2cncs2)c(C(=O)N2CCC[C@@H](C)[C@H]2CNc2nc3cc(Cl)ccc3o2)c1 [Example A34, ((2S,3R)-2-(((5-Chlorobenzo[d]oxazol-2-yl)amino)methyl)-3-methylpiperidin-1-yl)(5-methyl-2-(thiazol-5-yl)phenyl)methanone]	99%
Cc1ccc(-n2nccn2)c(C(=O)N2CCC[C@@H](C)[C@H]2CNc2ncccc2C#N)c1 [Example A90, 2-((((2S,3R)-3-Methyl-1-(5-methyl-2-(2H-1,2,3-triazol-2-yl)benzoyl)piperidin-2-yl)methyl)amino)nicotinonitrile]	33%
Cc1ccc(-n2nccn2)c(C(=O)N2CCC[C@@H](C)[C@H]2CNc2ncc(Cl)cn2)c1 [Example A147, ((2S,3R)-2-(((5-Chloropyrimidin-2-yl)amino)methyl)-3-methylpiperidin-1-yl)(5-methyl-2-(2H-1,2,3-triazol-2-yl)phenyl)methanone]	66%
